Laboratory results taken from patent US4452778A, “Synergistic antibacterial compositions and method of treatment of infections caused by multiple antibiotic-resistant organisms” (Eli Lilly and Company, priority 1981, dated 1984).
Converted amounts (≈) assume the structure as drawn. Read-outs that look alike come from different tables or passages of the source.

Key:
clinical = conditions: in vivo, iv, mean serum concentration
Proteus mirabilis = experiment: Checkerboard broth dilution synergy study (mic); assay type: cell-based; conditions: Table II, strain Allen
Pseudomonas pseudomallei = experiment: microbe, parasite or virus in culture; assay type: cell-based
E. cloacae = experiment: Checkerboard broth dilution synergy study (mic); assay type: cell-based; conditions: for MIC: Enterobacter cloacae, read-out: mic, drug alone
Pseudomonas maltophilia = experiment: Checkerboard broth dilution synergy study (mic); assay type: cell-based; conditions: for MIC: Stenotrophomonas maltophilia, read-out: mic, drug alone
Acinetobacter sp. = experiment: Checkerboard broth dilution synergy study (mic); assay type: cell-based; conditions: for MIC: Acinetobacter, read-out: mic, drug alone
Pseudomonas aeruginosa = experiment: Checkerboard broth dilution synergy study (mic); assay type: cell-based; conditions: for MIC: Pseudomonas aeruginosa, read-out: mic, drug alone
Proteus vulgaris = experiment: Checkerboard broth dilution synergy study (mic); assay type: cell-based; conditions: Table II; for MIC: Proteus vulgaris, read-out: mic, drug alone
Klebsiella pneumoniae = experiment: Checkerboard broth dilution synergy study (mic); assay type: cell-based; conditions: for MIC: Klebsiella pneumoniae, read-out: mic, drug alone
Proteus rettgeri = experiment: Checkerboard broth dilution synergy study (mic); assay type: cell-based; conditions: for MIC: Providencia rettgeri, read-out: mic, drug alone
Serratia marcescens = experiment: Checkerboard broth dilution synergy study (mic); assay type: cell-based; conditions: for MIC: Serratia marcescens, read-out: mic, drug alone

## COC1(NC(=O)C(C(=O)O)c2ccc(O)cc2)C(=O)N2C(C(=O)O)=C(CSc3nnnn3C)COC21 (stereo not drawn) [1-oxa compound I, moxalactam]
clinical
  concentration at 11 h: 1.2 µg/mL
Proteus mirabilis; Proteus mirabilis, read-out: mic, drug alone
  MIC: 0.06 mg/L
Proteus mirabilis
  mic of each drug in combination I + T: < 0.12 µg/mL
Pseudomonas pseudomallei; Burkholderia pseudomallei, read-out: mic, drug alone
  MIC: 32 mg/L (≈ 61.5 µM)
Pseudomonas pseudomallei; Table III, isolate not named
  mic of each drug in combination I + A: 4 µg/mL
E. cloacae; Table II, strain 1246
  MIC: 0.25 mg/L
  mic of each drug in combination I + T: < 0.12 µg/mL
E. cloacae; Table II, strain 1253
  MIC: 4 mg/L
  mic of each drug in combination I + P: 2 µg/mL
  mic of each drug in combination I + T: 0.25 µg/mL
E. cloacae; Table II, strain 1415
  MIC: 0.12 mg/L
  mic of each drug in combination I + T: 0.12 µg/mL
E. cloacae; Table II, strain B293
  MIC: 0.5 mg/L
  mic of each drug in combination I + P: 0.25 µg/mL
  mic of each drug in combination I + T: 0.12 µg/mL
E. cloacae; Table III, isolate 228
  MIC: 0.12 mg/L
  mic of each drug in combination I + A: < 0.06 µg/mL
E. cloacae; Table III, isolate 1253
  MIC: 4 mg/L
  mic of each drug in combination I + A: < 0.06 µg/mL
E. cloacae; Table III, isolate 1296
  MIC: 0.25 mg/L
  mic of each drug in combination I + A: 0.06 µg/mL
E. cloacae; Table III, isolate 1415
  MIC: 0.12 mg/L
  mic of each drug in combination I + A: 0.12 µg/mL
E. cloacae; Table III, isolate McQuinn
  MIC: 0.25 mg/L
  mic of each drug in combination I + A: 0.12 µg/mL
Pseudomonas maltophilia; Table II, strain 10
  MIC: 32 mg/L
  mic of each drug in combination I + T: 4 µg/mL
Pseudomonas maltophilia; Table II, strain 11
  MIC: 4 mg/L
  mic of each drug in combination I + T: 0.5 µg/mL
Pseudomonas maltophilia; Table II, strain 505
  MIC: 8 mg/L
  mic of each drug in combination I + T: 0.6 µg/mL
Pseudomonas maltophilia; Table III, isolate 10
  MIC: 32 mg/L
  mic of each drug in combination I + A: 8 µg/mL
Pseudomonas maltophilia; Table III, isolate 505
  MIC: 8 mg/L
  mic of each drug in combination I + A: 2 µg/mL
Acinetobacter sp.; Table II, strain 28-1
  MIC: 16 mg/L
  mic of each drug in combination I + T: 0.6 µg/mL
Acinetobacter sp.; Table II, strain 28-2
  MIC: 16 mg/L
  mic of each drug in combination I + T: 2 µg/mL
Acinetobacter sp.; Table II, strain 106
  MIC: 8 mg/L
  mic of each drug in combination I + T: 0.6 µg/mL
Acinetobacter sp.; Table II, strain 107
  MIC: 32 mg/L
  mic of each drug in combination I + T: 2 µg/mL
Acinetobacter sp.; Table II, strain 109
  MIC: 16 mg/L
  mic of each drug in combination I + T: 2 µg/mL
Acinetobacter sp.; Table III, isolate 28-1
  MIC: 16 mg/L
  mic of each drug in combination I + A: 2 µg/mL
Acinetobacter sp.; Table III, isolate 28-2
  MIC: 16 mg/L
  mic of each drug in combination I + A: < 0.06 µg/mL
Acinetobacter sp.; Table III, isolate 106
  MIC: 8 mg/L
  mic of each drug in combination I + A: < 0.06 µg/mL
Acinetobacter sp.; Table III, isolate 107
  MIC: 32 mg/L
  mic of each drug in combination I + A: 8 µg/mL
Acinetobacter sp.; Table III, isolate 109
  MIC: 16 mg/L
  mic of each drug in combination I + A: 8 µg/mL
Pseudomonas aeruginosa; Table II, strain 84
  MIC: 16 mg/L
  mic of each drug in combination I + P: 4 µg/mL
  mic of each drug in combination I + T: 2 µg/mL
Pseudomonas aeruginosa; Table II, strain 366
  MIC: 16 mg/L
  mic of each drug in combination I + P: 8 µg/mL
  mic of each drug in combination I + T: 0.5 µg/mL
Pseudomonas aeruginosa; Table II, strain 424
  MIC: 8 mg/L
  mic of each drug in combination I + P: 2 µg/mL
  mic of each drug in combination I + T: 2 µg/mL
Pseudomonas aeruginosa; Table II, strain 447
  MIC: 32 mg/L
  mic of each drug in combination I + P: 4 µg/mL
  mic of each drug in combination I + T: < 0.5 µg/mL
Pseudomonas aeruginosa; Table II, strain 1484
  MIC: 64 mg/L
  mic of each drug in combination I + P: 16 µg/mL
  mic of each drug in combination I + T: 4 µg/mL
Pseudomonas aeruginosa; Table II, strain Davis
  MIC: > 64 mg/L
  mic of each drug in combination I + P: 8 µg/mL
  mic of each drug in combination I + T: 2 µg/mL
Pseudomonas aeruginosa; Table III, isolate 316-2
  MIC: 8 mg/L
  mic of each drug in combination I + A: 4 µg/mL
Pseudomonas aeruginosa; Table III, isolate 362
  MIC: 32 mg/L
  mic of each drug in combination I + A: 4 µg/mL
Pseudomonas aeruginosa; Table III, isolate 363
  MIC: 32 mg/L
  mic of each drug in combination I + A: 1 µg/mL
Pseudomonas aeruginosa; Table III, isolate 610
  MIC: > 64 mg/L
  mic of each drug in combination I + A: 0.6 µg/mL
Pseudomonas aeruginosa; Table III, isolate Brownlee
  MIC: 32 mg/L
  mic of each drug in combination I + A: 1 µg/mL
Proteus vulgaris; strain 363
  MIC: 0.12 mg/L
  mic of each drug in combination I + T: < 0.12 µg/mL
Proteus vulgaris; strain Shide
  MIC: 0.06 mg/L
  mic of each drug in combination I + T: < 0.12 µg/mL
Klebsiella pneumoniae; Table II, strain 130
  MIC: 0.5 mg/L
  mic of each drug in combination I + T: < 0.012 µg/mL
Klebsiella pneumoniae; Table II, strain 214-1
  MIC: 2 mg/L
  mic of each drug in combination I + P: 0.5 µg/mL
  mic of each drug in combination I + T: 0.012 µg/mL
Klebsiella pneumoniae; Table II, strain 463
  MIC: 2 mg/L
  mic of each drug in combination I + P: 2 µg/mL
  mic of each drug in combination I + T: 0.012 µg/mL
Klebsiella pneumoniae; Table II, strain 512
  MIC: 0.5 mg/L
  mic of each drug in combination I + P: 0.5 µg/mL
  mic of each drug in combination I + T: 0.012 µg/mL
Klebsiella pneumoniae; Table II, strain 933
  MIC: 0.25 mg/L
  mic of each drug in combination I + T: < 0.012 µg/mL
Klebsiella pneumoniae; Table II, strain 1204-2
  MIC: 2 mg/L
  mic of each drug in combination I + P: 0.5 µg/mL
  mic of each drug in combination I + T: 0.012 µg/mL
Klebsiella pneumoniae; Table III, isolate 130
  MIC: 0.5 mg/L
  mic of each drug in combination I + A: 0.5 µg/mL
Klebsiella pneumoniae; Table III, isolate 214-1
  MIC: 2 mg/L
  mic of each drug in combination I + A: < 0.06 µg/mL
Klebsiella pneumoniae; Table III, isolate 463
  MIC: 2 mg/L
  mic of each drug in combination I + A: 2 µg/mL
Klebsiella pneumoniae; Table III, isolate 938
  MIC: 0.25 mg/L
  mic of each drug in combination I + A: < 0.06 µg/mL
Klebsiella pneumoniae; Table III, isolate 1231
  MIC: 0.5 mg/L
  mic of each drug in combination I + A: 0.06 µg/mL
Proteus rettgeri; Table II, strain 65
  MIC: 0.25 mg/L
  mic of each drug in combination I + T: 0.12 µg/mL
Proteus rettgeri; Table III, isolate 53
  MIC: 0.25 mg/L
  mic of each drug in combination I + A: < 0.06 µg/mL
Proteus rettgeri; Table III, isolate 136-1
  MIC: 0.25 mg/L
  mic of each drug in combination I + A: 0.12 µg/mL
Proteus rettgeri; Table III, isolate 768
  MIC: 0.5 mg/L
  mic of each drug in combination I + A: < 0.06 µg/mL
Proteus rettgeri; Table III, isolate 997
  MIC: 0.4 mg/L
  mic of each drug in combination I + A: < 0.06 µg/mL
Proteus rettgeri; Table III, isolate 1422
  MIC: 2 mg/L
  mic of each drug in combination I + A: 2 µg/mL
Serratia marcescens; Table II, strain 100
  MIC: 0.25 mg/L
  mic of each drug in combination I + P: 0.12 µg/mL
  mic of each drug in combination I + T: 0.12 µg/mL
Serratia marcescens; Table II, strain 302-2
  MIC: 1 mg/L
  mic of each drug in combination I + P: 0.12 µg/mL
  mic of each drug in combination I + T: 0.12 µg/mL
Serratia marcescens; Table II, strain 796
  MIC: 8 mg/L
  mic of each drug in combination I + P: 2 µg/mL
  mic of each drug in combination I + T: 2 µg/mL
Serratia marcescens; Table II, strain 14142
  MIC: 1 mg/L
  mic of each drug in combination I + P: 0.12 µg/mL
  mic of each drug in combination I + T: 0.25 µg/mL
Serratia marcescens; Table II, strain Townsend
  MIC: 4 mg/L
  mic of each drug in combination I + P: 2 µg/mL
  mic of each drug in combination I + T: 1 µg/mL
Serratia marcescens; Table III, isolate 463-2
  MIC: 8 mg/L
  mic of each drug in combination I + A: < 0.06 µg/mL
Serratia marcescens; Table III, isolate 606
  MIC: 4 mg/L
  mic of each drug in combination I + A: 0.5 µg/mL
Serratia marcescens; Table III, isolate 1414
  MIC: 1 mg/L
  mic of each drug in combination I + A: 0.06 µg/mL
Serratia marcescens; Table III, isolate B377
  MIC: 8 mg/L
  mic of each drug in combination I + A: 0.12 µg/mL
Serratia marcescens; Table III, isolate Ziegler
  MIC: 4 mg/L
  mic of each drug in combination I + A: 0.06 µg/mL
